In patent US20110212909A1, “Use of Ginsenoside Compound K in the Preparation of a Medicament for the Prevention and Treatment of Atherosclerosis” (priority 2008, published 2011):
Marks after values point to notes of the source that are not given here.

Key:
Kunming mice = assay: Primary survey for toxicity in mice (gavage, 14 days); assay type: in vivo
Experimental: 40 Kunming mice (weight 18-22 g) were randomly divided into blank group of 20 mice, and ginsenoside compound K group of 20 mice, wherein male and female mice were fifty-fifty in each group. Fasting was carried out before trial for 16 h, allowing mice to freely drink water. Each mouse in drug group was gavaged with ginsenoside compound K (bought from) suspension according to a dose of 400 mg/kg, and blank group was gavaged equivalent amount of distilled water, with administration carried out once a day. Observation was carried out for 14 days after administration, wherein mice were weighted and animal responses were observed each day. The mice were weighted on fourteenth day of the trial, then were sacrificed and dissected, and tissue change of mice's major organs such as heart, liver, spleen, lung, and kidney were observed.
There was no phenomena such as abnormal crying, tremor, convulsion, dyskinesias, salivation, lacrimation, nose running, respiration difficulty, rapid heartbeat or slow heartbeat, diarrhea, constipation, intestinal tympanites in drug group mice; mice's hair was glossy; No mouse died in 14 days of administration.

CD36 mRNA = assay: Real-time quantitative PCR of CD36 mRNA in foam cells; assay type: cell-based; conditions: 25 μM, rat foam cells
Experimental: FIG. 1 provides effects of a ginsenoside compound K (C-K, 25 μM) and pyrrolidine dithiocarbamate (PDTC, 25 μM) on the foam cell CD36 mRNA expression. a: P<0.05, vs foam cell group; b: P<0.05, vs PDTC. PDTC (25 μM) C-K (25 μM) (n=5).
(1) Material and reagents (the same as Example 2).
(§1) (2) real-time quantitative PCR analysis (a reference method: Zhang Yiguan, Li Xiaohui, Fan Jishan, Zhang Haigang, Li Shuhui, Liao Wenqiang, Pang Yan, Jia Yi. Total panax notoginsenosides suppress atherosclerosis formation in rats by means of antiinflammatory and blood fat regulating action. Progress in Modern Biomedicine. 2007, 27(11): 1601-1607).
(§2) Data was expressed as x±s, variance analysis were carried out between groups by SPSS 13.0 software.

perilipin protein = assay: Protein expression of perilipin in foam cells; assay type: cell-based; conditions: 25 μM, rat foam cells
Experimental: FIG. 3 provides effects of a ginsenoside compound K (C-K, 25 μM) and pyrrolidine dithiocarbamate (PDTC, 25 μM) on the protein expression of perilipin in foam cell. a: P<0.01, vs foam cell group PDTC (25 μM) C-K (25 μM) (n=5).
(§3) (1) Material and reagents (the same as Examples 2).
as §2

LXRα mRNA = assay: Real-time quantitative PCR of LXRα mRNA in foam cells; assay type: cell-based; conditions: 25 μM, rat foam cells
Experimental: FIG. 5 provides effects of a ginsenoside compound K (C-K, 25 μM) and pyrrolidine dithiocarbamate (PDTC, 25 μM) on the foam cell LXRα mRNA expression. a: P<0.05, vs foam cell group. PDTC (25 μM) C-K (25 μM) (n=5).
as §3
as §1, with “27 (11):” for “27(11):”
as §2

[1] = tested on: macrophage-derived foam cells of rat abdominal cavity; assay: Assay of amount of TC and CE in ox-LDL induced macrophage-derived foam cells; assay type: cell-based
Experimental: 1. Experiment animal: SD rats, male, 200-250 g, bought from the third Military Medical University Experiment Animal Center.
2. Reagents: RPMI 1640 culture medium free of phenol red bought from Invitrogen company; LDL (115 mg/mL) bought from Peking Union Medical College; total cholesterol kit and free cholesterol kit bought from Shanghai Mind Bioengineering Limited Company; ginsenoside compound K (hereinafter being called C-K for short. White powders, purity 99%), provided by Kunming Nuowei Jinshen Bioengineering limited company supply (batch number: NTGA070521, details see China invention patent 200710066011. X “a method of preparing rare ginsenoside compound K by streptomycete fermentation of Sanchi saponins”).
LDL was placed into PBS comprising 10 μM Cu^2+, dialysed at 37° C. for 12 h, then was placed into PBS comprising 0.01% EDTA, and dialysed at 4° C. for 24 hours before stopping oxidization, then was subjected to filtration sterilization, and stored for use.
4. Culture of macrophage and establishment of foam cells model (available literature: Jia Yi, Li Xiaohui, Xing Mao, Hei Xuefeng, Liu Ya, He Cuiyao. Studies on affect of various combinations of 3 sorts of monomers in total panax notoginsenosides on formation of mouse macrophage-derived foam cells. Journal of China Pharmacy, 2008, 19 (2), 881-883.)
each rat were intraperitoneally injected with 2 mL RPMI 1640 culture solution free of serum and phenol red, and it was sacrificed by cervical dislocation after 20 minutes, and was soaked in 75% ethanol for 10 minutes, then rat's belly was cut open, and fluids in abdominal cavity were collected, and centrifugated at 750 r/min for 5 minutes, and then cells were collected, and cells concentrations were adjusted to […] by using RPMI 1640 culture solution which were free of phenol red and comprised 10% Fetal Calf Serum. 10 pieces of 6 wells plate was added 1 mL cells suspension per well, and was placed into an incubator of 5% CO2 at 37 °C, and cultured for two hours, then supernatant was discarded, and nonadhesive cells was washed by using PBS. Original culture medium was discarded. Culture was carried out for 48 hours after adding 5 mL culture medium comprising 20 mg/L ox-LDL, and thereby foam cells were formed.
[…] were divided into ox-LDL model group, pyrrolidine dithiocarbamate (PDTC) (drugs source: Sigma), control group and C-K interference group. Each group had 5 pieces of plates. […]
Culture solution was aspirated, and lipid in foam cells was extracted by Folch method (reference: Folch J et al, A simple method for the isolation and purification of total lipides from animal tissues. J Biol Chem, 1957, 226 (1): 497-509), according to direction for use of kit.
Data was expressed as x±s, and variance analysis was carried out between groups by SPSS 13.0 software.

perilipin mRNA = assay: Real-time quantitative PCR of perilipin mRNA in foam cells; assay type: cell-based; conditions: 25 μM, rat foam cells
Experimental: FIG. 2 provides effects of a ginsenoside compound K (C-K, 25 μM) and pyrrolidine dithiocarbamate (PDTC, 25 μM) on the foam cell perilipin mRNA expression.
a: P<0.05, vs. foam cells group. PDTC (25 μM) C-K (25 μM) (n=5).
as §3
as §1, with “27 (11):” for “27(11):”
as §2

CC(C)=CCC[C@](C)(OC1OC(CO)C(O)C(O)C1O)C1CC[C@]2(C)C1[C@H](O)CC1[C@@]3(C)CC[C@H](O)C(C)(C)C3CC[C@]12C (stereo partly drawn) [C-K, 20-O-β-D-glucopyranosyl 20-(S)-protopanaxadiol]
mice's response to acute toxicity (Kunming mice; Kunming mice, 400 mg/kg gavage): not obvious
time until signs after gavage (eye closed, lying down, reduced autonomic activities, appetite descent) restored normal (Kunming mice; Kunming mice, 400 mg/kg gavage): ≤ 2 h
death of mice in 14 days of administration (Kunming mice; Kunming mice, 400 mg/kg gavage once a day, 14 days): No mouse died
organs observed by naked eye after dissection (Kunming mice; mouse, in vivo, 400 mg/kg): no abnormality in each organ
change of CD36 mRNA expression in foam cells compared with model group (CD36 mRNA): not obvious
expression of perilipin proteins in foam cells compared with model group (perilipin protein): significantly down-regulated
expression of LXRα mRNA in foam cells compared with model group (LXRα mRNA): significantly up-regulated
TC and CE amount in foam cells compared with model group ([1]; 25 nM as printed in text): significantly lowered
CE in foam cells ([1]; 25 μM, 48 hours, rat foam cells, x ± s, n = 5, ox-LDL model group 15.24 ± 2.38): 28.12 ± 3.12^a
CE/TC in foam cells ([1]; 25 μM, 48 hours, rat foam cells, x ± s, n = 5, ox-LDL model group 59.56 ± 2.96): 47.01 ± 3.80^a %
TC in foam cells ([1]; 25 μM, 48 hours, rat foam cells, x ± s, n = 5, ox-LDL model group 87.20 ± 2.19): 59.72 ± 2.38^a
expression of perilipin mRNA in foam cells compared with model group (perilipin mRNA): significantly down-regulated
